Test results: the METLIN SMRT retention time set (Domingo-Almenara et al. 2019)

Experiment: gradient 5% acetonitrile 3 min, to 50% in 2 min, to 85% in 15 min, held 3 min, 100 µL/min
Settings: column: Zorbax Extend-C18 2.1 x 50 mm; eluents: water / acetonitrile, 0.1% formic acid
Summary of the method: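 Over 3 months, pure standards in mixtures of ~100 molecules were run by HPLC coupled to a quadrupole time-of-flight mass spectrometer in positive and negative ionization mode. The column was a Zorbax Extend-C18 (2.1 × 50 mm, 1.8 μm) at 100 μL/min, eluted with water and acetonitrile each holding 0.1% formic acid, with 40 μL dead and 900 μL dwell volumes. Retention time was determined from adduct peaks chosen by software and checked manually.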

O=C(Nc1ccc(-c2cn3c(C(=O)N4CCCC4)csc3n2)cc1)c1ccccc1
RP-LC retention time: 780 s

CCCN1C(=O)c2cc(C(=O)NCc3ccccc3)nn2CC1(C)C(=O)NC1CCCC1 (configuration not stated)
RP-LC retention time: 605 s

Cc1ccc(NC(=O)CSc2nccc(N3CCN(c4cc(C)ccc4C)CC3)n2)cc1
RP-LC retention time: 950 s

CC(C)n1cnnc1CC1CN(C(=O)Nc2ccc(Cl)cc2C(F)(F)F)C1
RP-LC retention time: 693 s

O=C(Cn1cccc1-c1nc(-c2ccc(Cl)cc2)cs1)NCCCN1CCCC1
RP-LC retention time: 826 s

CC(=O)[C@@]1(O)CC[C@H]2[C@@H]3C[C@H](C)C4=CC(=O)C=C[C@]4(C)[C@@]3(F)[C@@H](O)C[C@@]21C
RP-LC retention time: 844 s

O=S(=O)(NCCS(=O)(=O)N1CCc2ccccc21)c1cccnc1
RP-LC retention time: 700 s

Cc1ccccc1CN1CCN(CC(=O)N2CCN(Cc3ccccc3)CC2)C(=O)C1=O
RP-LC retention time: 609 s

CCCCN1CCN(C(=O)C2CCCN(c3cnc4nccnc4c3)C2)CC1 (configuration not stated)
RP-LC retention time: 569 s

CCCNC(=O)C1CCCN(c2nc3ncn(CC(=O)Nc4cc(C)cc(C)c4)c(=O)c3s2)C1 (configuration not stated)
RP-LC retention time: 759 s

CC(C)c1cccc(NC(=O)C2CCc3nc(N4CCOCC4)ncc3C2)c1 (configuration not stated)
RP-LC retention time: 755 s

CN1CCC(C2CCN(S(=O)(=O)c3ccccc3Cl)C2)CC1 (configuration not stated)
RP-LC retention time: 710 s

CCOC(=O)C1CCN(C(=O)CCc2cc3cc(C)ccc3[nH]c2=O)CC1
RP-LC retention time: 729 s

CCOc1ccc(S(=O)(=O)N2CCC(C(=O)NC3CCCCC3)CC2)cc1
RP-LC retention time: 922 s

Cc1cccc(-c2nc3cnccn3c2NCCC(=O)NCC(C)C)c1
RP-LC retention time: 672 s

COc1ccc(-c2cc(N3CCC(NC(=O)c4ccccc4OC)C3)n[nH]2)cc1 (configuration not stated)
RP-LC retention time: 712 s

O=C(CC1CCCCC1)NC1CCN(C(=O)c2cc(-c3cccc(Cl)c3)n[nH]2)CC1
RP-LC retention time: 797 s

COC(=O)c1ccc(NC(=O)C2CCN(S(=O)(=O)c3c(C)nn(-c4ccccc4)c3C)CC2)cc1
RP-LC retention time: 955 s

CC(C)CNC(=O)c1nc2cccnc2n(CC(C)C)c1=O
RP-LC retention time: 940 s

CCOc1ccccc1NC(=O)Cn1nc(N2CCC(C)CC2)c2ccccc2c1=O
RP-LC retention time: 1290 s

Cc1ccc(C)c(NC(=O)C(=O)NCC(c2ccc3c(c2)OCO3)N2CCOCC2)c1 (configuration not stated)
RP-LC retention time: 693 s

CCNc1ncnc2sc3c(c12)CCN(C(=O)c1ccncc1)C3
RP-LC retention time: 591 s

CCCn1cnc2c(Sc3c([N+](=O)[O-])ncn3C)nc(N)nc21
RP-LC retention time: 681 s

Cc1cc(C)c(S(=O)(=O)N(CCN2CCCCC2C)CC(=O)N2CCNCC2)cc1C (configuration not stated)
RP-LC retention time: 601 s

Cc1nc2c(c(N(C)CC(=O)N3CCCC3)n1)CCC2
RP-LC retention time: 561 s

COc1ccc(-c2noc(-c3ccc(NCCN(C)C)nn3)n2)cc1
RP-LC retention time: 630 s

Cc1c(Cl)cccc1Nc1ncccc1C(=O)O
RP-LC retention time: 841 s

CC(C)NC(=O)N1CCCC(c2cccc(C(=O)NCCN3CCOCC3)c2)C1 (configuration not stated)
RP-LC retention time: 591 s

CCc1cc(N2CCN(C(=O)c3ccc(N(C)C)cc3)CC2)nc2nnc(C)n12
RP-LC retention time: 599 s

CNC(=O)N1CCCC(c2cccc(C(=O)NC3CCCCCC3)c2)C1 (configuration not stated)
RP-LC retention time: 820 s

CCn1nccc1-c1cccc(-c2noc(-c3ccccn3)n2)c1
RP-LC retention time: 897 s

O=C(COc1ccccc1)Nc1cnc(-c2cccnc2)nc1
RP-LC retention time: 678 s

Cc1ccc(S(=O)(=O)N2CCN(CCc3cn(C)c4ncccc34)CC2)cc1C
RP-LC retention time: 656 s

O=C(Nc1nc(-c2nc3ccccc3s2)cs1)c1ccc([N+](=O)[O-])s1
RP-LC retention time: 1020 s

COC(=O)c1ccc(NC(=O)N2CCCC2c2cccc(F)c2)cc1 (configuration not stated)
RP-LC retention time: 898 s

O=C(C1CCN(c2cnn(Cc3ccccc3)c(=O)c2)C1)N1CCCC1 (configuration not stated)
RP-LC retention time: 683 s

CC(C)CC(=O)N1CCC2(CC1)NCc1ccccc1-n1ccnc12
RP-LC retention time: 594 s
